Results: patent publication US6762052B1, “DNA sequence encoding flavin-containing monooxygenase” (priority 1993, dated 2004)

What was measured:
Human Liver Microsomes = assay: in vitro
glu158-HFMO3-MBP = target: T1, glu158-HFMO3-MBP (Homo sapiens, UniProt P31513); assay: Substrate oxygenation by glu158-HFMO3-MBP fusion protein, HPLC; settings: glu158-HFMO3-MBP, N-oxygenation
T1 sequence (P31513 2-532): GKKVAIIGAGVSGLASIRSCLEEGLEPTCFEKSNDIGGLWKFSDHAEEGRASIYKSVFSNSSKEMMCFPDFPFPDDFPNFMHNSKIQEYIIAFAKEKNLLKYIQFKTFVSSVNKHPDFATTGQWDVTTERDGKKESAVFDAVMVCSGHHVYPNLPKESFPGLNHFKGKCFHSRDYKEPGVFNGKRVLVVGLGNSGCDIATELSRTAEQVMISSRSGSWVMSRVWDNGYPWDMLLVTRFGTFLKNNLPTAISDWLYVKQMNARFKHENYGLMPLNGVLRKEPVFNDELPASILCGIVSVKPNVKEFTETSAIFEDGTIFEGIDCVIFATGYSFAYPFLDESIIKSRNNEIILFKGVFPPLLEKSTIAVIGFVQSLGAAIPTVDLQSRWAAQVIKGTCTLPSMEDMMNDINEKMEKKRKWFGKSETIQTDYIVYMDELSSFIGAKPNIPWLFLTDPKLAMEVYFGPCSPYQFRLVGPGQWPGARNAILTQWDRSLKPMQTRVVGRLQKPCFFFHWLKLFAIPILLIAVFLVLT
Experimental: For HFMO3-MBP assay, all HFMO3-MBP incubations were done as follows: Into a test tube was added DETAPAC (1.2 mM, final concentration for a 250 μl reaction) followed by the addition of 60 μl NADPH generating system (0.4 mM NADP, 0.4 mM glucose-6-phosphate, and 20 μl of a 50 units mI^−1 glucose-6-phosphate dehydrogenase). The tube was chilled on ice and buffer and enzyme were added as described below for individual experiments to give a volume of 240 μl. The incubation was initiated by the addition of 5-DTP (10 μl of 5 mM) and placed in a shaking water bath at 37° C. for 10 min (unless specified otherwise). The incubation was stopped by the addition of 1.0 ml of ice-cold CH2Cl2. Following the addition of sodium carbonate (approx. 20 mg), the culture tube was vortexed, centrifuged (2000×g, 10 min), and the organic layer was removed and transferred to a 1.5 ml microfuge tube. The organic solvent was evaporated under a stream of Ar(g) to dryness and the residue was taken up in MeOH (300 μl) for determination HPLC analysis.
Data was analyzed with a Hitachi D-2500 integrator.
MTS-oxygenation assays were carried out under the same buffer, temperature, time and volume conditions, as for the N-oxygenation assays. The reactions were initiated upon addition of 10 μl of a 5 mM solution of MTS. The reaction was quenched with the addition of 700 μl of 80% CH3CN:20% hexane then 20 mg NaCl(s) and vortexed vigorously for 10 sec. The quenched reactions were then centrifuged briefly to separate the phases. The organic layer, containing product and substrate, was removed and used directly for HPLC analysis.
All other instruments used were the same as above for the N-oxygenation reactions. Conditions for elution were 50% CH3CN/H2O (v:v) with a flow rate gradient as follows: 1.5 ml min^−1 from 0 to 4 min., 1.5-2.5 ml min^−1 from 4 to 5 min, 2.5 ml min^−1 from 5 to 15 min.
Trimethylamine is commonly ingested in foodstuffs or it is available in the diet of humans from choline and other sources. Trimethylamine (TMA) is exclusively eliminated in humans by metabolism to trimethylamine N-oxide (TMANO). […]

CN(C)CCCCCN1c2ccccc2Sc2ccc(C(F)(F)F)cc21 [Compound 5]
Km (Human Liver Microsomes): 6.8 µM
N-oxide formation, Human Liver Microsomes (Human Liver Microsomes): 252.1 ± 38.6 pmol/min/mg of protein
S-oxide formation, Human Liver Microsomes (Human Liver Microsomes): 32.5 ± 33.7 pmol/min/mg of protein
Vmax, Human Liver Microsomes (Human Liver Microsomes): 0.098 nmol/min/mg of protein
Km (glu158-HFMO3-MBP): 108 µM
Vmax (glu158-HFMO3-MBP; Lineweaver-Burke analysis): 15.8 nmole/min/nmol of flavin
